A value given as a limit tells only on which side of the number the result lay.

One data set is described as follows: Inhibition of gamma-secretase.
Settings: not given
In the case of `Nc1ncc2c(n1)CC1CCCC2N1S(=O)(=O)c1ccc(Cl)cc1` (stereo not drawn), the IC50 (in general, the point on the concentration scale where inhibition reaches its midpoint) is 5.5 µM. Consider `O=S(=O)(c1ccc(Cl)cc1)N1C2CCCC1c1cncnc1C2` (stereo not drawn), for which the IC50 is 4.7 µM. On to `O=S(=O)(c1ccc(Cl)cc1)N1C2CCCC1CC(=NO)C2` (racemic), for which half-maximal inhibition (IC50) was put at 3.3 µM. Compound `Cn1ncc2c1CC1CCCC2N1S(=O)(=O)c1ccc(Cl)cc1` (stereo not drawn) gave an IC50 of more than 10 µM. `O=C1c2[nH]ncc2C2CCCC1N2S(=O)(=O)c1ccc(Cl)cc1` (stereo not drawn) showed an IC50 of 0.008 µM.

Turning to `C[C@@H]1CCC[C@H](C)N1S(=O)(=O)c1ccc(Cl)cc1`, the IC50 turned out to be 1.7 µM. As for `O=C1NCCCC[C@H]1N(Cc1ccc(Br)cc1)S(=O)(=O)c1ccc(Cl)cc1`, it took 0.025 µM to reach half-maximal inhibition (IC50). Take `O=S(=O)(c1ccc(Cl)cc1)N1C2CCCC1c1c(C(F)F)n[nH]c1C2` (stereo not drawn): the IC50 is 0.085 µM. Take `CN1CCCC[C@@H](N(Cc2ccc(Br)cc2)S(=O)(=O)c2ccc(Cl)cc2)C1=O`: the IC50 was determined as 1.7 µM.

As to `CNC1CC2CCCC(C1)N2S(=O)(=O)c1ccc(Cl)cc1` (racemic), the IC50 was more than 10 µM. Same read-out and setting: the result for `Cn1cc2c(n1)CC1CCCC2N1S(=O)(=O)c1ccc(Cl)cc1` (stereo not drawn) reads more than 10 µM.

In turn, `CSc1ncc2c(n1)CC1CCCC2N1S(=O)(=O)c1ccc(Cl)cc1` (stereo not drawn) came in with an IC50 of more than 10 µM. As for `CC(=O)Nc1n[nH]c2c1C1CCCC(C2)N1S(=O)(=O)c1ccc(Cl)cc1` (stereo not drawn), the IC50 is 0.07 µM. Still for that read-out and setting: the result for `O=S(=O)(c1ccc(Cl)cc1)N1C2CCCC1c1cnc(O)nc1C2` (stereo not drawn) reads more than 10 µM. The compound `CSc1n[nH]c2c1C1CCCC(C2)N1S(=O)(=O)c1ccc(Cl)cc1` (stereo not drawn) registered an IC50 of 0.39 µM. That is a sub-micromolar value. `COc1cc(CN([C@@H]2CCCCNC2=O)S(=O)(=O)c2ccc(Cl)cc2)ccc1OCCc1scnc1C` returned an IC50 of 0.65 µM. `COc1ncc2c(n1)CC1CCCC2N1S(=O)(=O)c1ccc(Cl)cc1` (stereo not drawn): inhibition was half-maximal at 9 µM (IC50).

`CC(=O)NC1CC2CCCC(C1)N2S(=O)(=O)c1ccc(Cl)cc1` (racemic): the IC50 was more than 10 µM. As to `O=S(=O)(c1ccc(Cl)cc1)N1C2CCCC1C(F)(F)c1[nH]ncc12` (stereo not drawn), the IC50 was 0.003 µM. This lies in the single-digit nanomolar range. Compound `O=S(=O)(c1ccc(Cl)cc1)N1[C@@H]2CCC[C@H]1C[C@@H](O)C2` (stereo in doubt; 8b) came in with an IC50 of 0.6 µM. Same read-out and setting: the same measure for `O=S(=O)(c1ccc(Cl)cc1)N1C2CCCC1c1cnoc1C2` (stereo not drawn): 3.5 µM. With `CN(C)c1n[nH]c2c1C1CCCC(C2)N1S(=O)(=O)c1ccc(Cl)cc1` (stereo not drawn), the IC50 was more than 10 µM. `O=S(=O)(c1ccc(Cl)cc1)N1C2CCCC1c1cn[nH]c1C2` (stereo not drawn) returned an IC50 of 0.004 µM. On to `Nc1nc2c(s1)C1CCCC(C2)N1S(=O)(=O)c1ccc(Cl)cc1` (stereo not drawn), for which the IC50 was more than 10 µM. `O=S(=O)(c1ccc(Cl)cc1)N1C2CCCC1c1c(C(F)(F)F)n[nH]c1C2` (stereo not drawn) registered an IC50 of 0.07 µM. For the compound `Cc1n[nH]c2c1C1CCCC(C2)N1S(=O)(=O)c1ccc(Cl)cc1` (stereo not drawn), the IC50 worked out at 0.065 µM. The same measure, in the same setting: the result for `N[C@H]1C[C@H]2CCC[C@@H](C1)N2S(=O)(=O)c1ccc(Cl)cc1` reads more than 10 µM. Turning to `O=S(=O)(c1ccc(Cl)cc1)N1C2CCCC1CCC2`, the IC50 stood at 1.3 µM. With `Cc1ccc(S(=O)(=O)C(=O)NC2CC3CCCC(C2)N3S(=O)(=O)c2ccc(Cl)cc2)cc1` (racemic), half-maximal inhibition (IC50) was put at 8 µM. The same measure, in the same setting: the result for `O=S(=O)(c1ccc(Cl)cc1)N1[C@@H]2CCC[C@H]1C[C@@H](O)C2` (stereo in doubt; 8a) reads 3 µM; that for `Nc1n[nH]c2c1C1CCCC(C2)N1S(=O)(=O)c1ccc(Cl)cc1` (stereo not drawn), 0.105 µM.

The next data set is described as follows: Drug level in FVB mouse plasma at 100 mg/kg, po after 3 hrs. Type of data set: ADME, organism-based. Also on record: dose 100 mg/kg, route oral.
Settings: not given
On to `O=S(=O)(c1ccc(Cl)cc1)N1C2CCCC1c1cn[nH]c1C2` (single isomer, unassigned; (+)), for which the concentration at 3 h was 194 nM.

The nature of a further data set: Drug level in FVB mouse cerebral cortex at 100 mg/kg, po after 3 hrs. Type of data set: ADME, organism-based. Also on record: dose 100 mg/kg, route oral. The conditions noted are these: read-out: Drug uptake.
Consider `O=S(=O)(c1ccc(Cl)cc1)N1C2CCCC1c1cn[nH]c1C2` (single isomer, unassigned; (+)), for which the concentration at 3 h amounted to 86 nM.

The values are drawn from ChEMBL document CHEMBL1156311, “Discovery of sulfonamide-pyrazole gamma-secretase inhibitors” (Bioorg Med Chem Lett, 2010).
